Laboratory results published in ChEMBL document CHEMBL5442219.

Assays:
Details in all cases: Compound concentration 10 µM
[1] = molecular target: T1, Alpha-1A adrenergic receptor (Homo sapiens) (UniProt P35348)
T1 sequence (whole entry): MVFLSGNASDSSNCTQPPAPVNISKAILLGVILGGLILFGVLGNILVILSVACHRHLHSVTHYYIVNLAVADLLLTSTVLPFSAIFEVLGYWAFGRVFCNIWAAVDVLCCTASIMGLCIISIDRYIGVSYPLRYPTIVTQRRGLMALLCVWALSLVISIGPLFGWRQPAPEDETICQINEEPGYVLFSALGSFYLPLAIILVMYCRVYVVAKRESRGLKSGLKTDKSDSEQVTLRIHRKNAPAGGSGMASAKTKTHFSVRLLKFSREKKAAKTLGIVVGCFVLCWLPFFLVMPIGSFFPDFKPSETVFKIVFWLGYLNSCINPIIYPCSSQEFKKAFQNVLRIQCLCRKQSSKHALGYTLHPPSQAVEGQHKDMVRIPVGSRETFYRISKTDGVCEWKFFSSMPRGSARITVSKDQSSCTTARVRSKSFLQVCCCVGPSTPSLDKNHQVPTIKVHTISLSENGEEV
Description: PDSP Primary Binding target: ADRA1A - Compounds are tested at 10 uM concentration, plate are incubated at room temperature in the dark for 90 minutes. Reaction are stopped by vacuum filtration onto 0.3% polyethyleneimine soaked filter mats using Filtermate harvester. Scintilation cocktail is then melted onto microwave-dried filters on a hot plate and the radio activity is counted in Microbia counter.

[2] = molecular target: D(1A) dopamine receptor (Homo sapiens) (UniProt P21728)
Description: PDSP Primary Binding target: DRD1 - Compounds are tested at 10 uM concentration, plate are incubated at room temperature in the dark for 90 minutes. Reaction are stopped by vacuum filtration onto 0.3% polyethyleneimine soaked filter mats using Filtermate harvester. Scintilation cocktail is then melted onto microwave-dried filters on a hot plate and the radio activity is counted in Microbia counter.

[3] = molecular target: D(2) dopamine receptor (Homo sapiens) (UniProt P14416)
Description: PDSP Primary Binding target: DRD2 - Compounds are tested at 10 uM concentration, plate are incubated at room temperature in the dark for 90 minutes. Reaction are stopped by vacuum filtration onto 0.3% polyethyleneimine soaked filter mats using Filtermate harvester. Scintilation cocktail is then melted onto microwave-dried filters on a hot plate and the radio activity is counted in Microbia counter.

[4] = molecular target: Histamine H3 receptor (Homo sapiens) (UniProt Q9Y5N1)
Description: PDSP Primary Binding target: HRH3 - Compounds are tested at 10 uM concentration, plate are incubated at room temperature in the dark for 90 minutes. Reaction are stopped by vacuum filtration onto 0.3% polyethyleneimine soaked filter mats using Filtermate harvester. Scintilation cocktail is then melted onto microwave-dried filters on a hot plate and the radio activity is counted in Microbia counter.

[5] = molecular target: T2, 5-hydroxytryptamine receptor 1A (Homo sapiens) (UniProt P08908)
T2 sequence (whole entry): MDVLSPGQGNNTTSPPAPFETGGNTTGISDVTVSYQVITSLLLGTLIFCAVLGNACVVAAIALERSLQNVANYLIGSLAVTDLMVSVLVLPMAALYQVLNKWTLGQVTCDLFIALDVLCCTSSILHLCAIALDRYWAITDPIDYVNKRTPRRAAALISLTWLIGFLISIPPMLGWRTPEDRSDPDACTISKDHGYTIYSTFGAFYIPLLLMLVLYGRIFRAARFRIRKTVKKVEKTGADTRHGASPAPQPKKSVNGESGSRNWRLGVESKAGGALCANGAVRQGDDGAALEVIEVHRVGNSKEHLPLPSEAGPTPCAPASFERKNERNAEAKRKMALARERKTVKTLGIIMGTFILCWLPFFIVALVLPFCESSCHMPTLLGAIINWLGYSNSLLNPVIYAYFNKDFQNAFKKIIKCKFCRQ
Description: PDSP Primary Binding target: HTR1A - Compounds are tested at 10 uM concentration, plate are incubated at room temperature in the dark for 90 minutes. Reaction are stopped by vacuum filtration onto 0.3% polyethyleneimine soaked filter mats using Filtermate harvester. Scintilation cocktail is then melted onto microwave-dried filters on a hot plate and the radio activity is counted in Microbia counter.

[6] = molecular target: 5-hydroxytryptamine receptor 1B (Homo sapiens) (UniProt P28222)
Description: PDSP Primary Binding target: HTR1B - Compounds are tested at 10 uM concentration, plate are incubated at room temperature in the dark for 90 minutes. Reaction are stopped by vacuum filtration onto 0.3% polyethyleneimine soaked filter mats using Filtermate harvester. Scintilation cocktail is then melted onto microwave-dried filters on a hot plate and the radio activity is counted in Microbia counter.

[7] = molecular target: 5-hydroxytryptamine receptor 1D (Homo sapiens) (UniProt P28221)
Description: PDSP Primary Binding target: HTR1D - Compounds are tested at 10 uM concentration, plate are incubated at room temperature in the dark for 90 minutes. Reaction are stopped by vacuum filtration onto 0.3% polyethyleneimine soaked filter mats using Filtermate harvester. Scintilation cocktail is then melted onto microwave-dried filters on a hot plate and the radio activity is counted in Microbia counter.

[8] = molecular target: 5-hydroxytryptamine receptor 1E (Homo sapiens) (UniProt P28566)
Description: PDSP Primary Binding target: HTR1E - Compounds are tested at 10 uM concentration, plate are incubated at room temperature in the dark for 90 minutes. Reaction are stopped by vacuum filtration onto 0.3% polyethyleneimine soaked filter mats using Filtermate harvester. Scintilation cocktail is then melted onto microwave-dried filters on a hot plate and the radio activity is counted in Microbia counter.

[9] = molecular target: 5-hydroxytryptamine receptor 2A (Homo sapiens) (UniProt P28223)
Description: PDSP Primary Binding target: HTR2A - Compounds are tested at 10 uM concentration, plate are incubated at room temperature in the dark for 90 minutes. Reaction are stopped by vacuum filtration onto 0.3% polyethyleneimine soaked filter mats using Filtermate harvester. Scintilation cocktail is then melted onto microwave-dried filters on a hot plate and the radio activity is counted in Microbia counter.

[10] = molecular target: 5-hydroxytryptamine receptor 2B (Homo sapiens) (UniProt P41595)
Description: PDSP Primary Binding target: HTR2B - Compounds are tested at 10 uM concentration, plate are incubated at room temperature in the dark for 90 minutes. Reaction are stopped by vacuum filtration onto 0.3% polyethyleneimine soaked filter mats using Filtermate harvester. Scintilation cocktail is then melted onto microwave-dried filters on a hot plate and the radio activity is counted in Microbia counter.

[11] = molecular target: T3, 5-hydroxytryptamine receptor 2C (Homo sapiens) (UniProt P28335)
T3 sequence (whole entry): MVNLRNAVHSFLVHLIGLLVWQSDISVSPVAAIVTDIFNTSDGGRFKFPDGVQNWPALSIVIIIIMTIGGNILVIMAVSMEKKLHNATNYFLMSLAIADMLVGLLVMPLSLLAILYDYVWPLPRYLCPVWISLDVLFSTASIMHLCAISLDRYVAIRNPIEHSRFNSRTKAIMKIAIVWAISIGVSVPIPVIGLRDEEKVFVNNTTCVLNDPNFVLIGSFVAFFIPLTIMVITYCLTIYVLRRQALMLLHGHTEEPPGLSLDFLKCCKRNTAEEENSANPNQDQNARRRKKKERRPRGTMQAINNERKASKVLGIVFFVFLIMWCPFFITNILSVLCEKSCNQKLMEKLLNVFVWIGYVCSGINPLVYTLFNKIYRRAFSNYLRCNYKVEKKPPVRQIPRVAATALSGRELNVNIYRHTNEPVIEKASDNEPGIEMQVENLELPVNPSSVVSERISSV
Description: PDSP Primary Binding target: HTR2C - Compounds are tested at 10 uM concentration, plate are incubated at room temperature in the dark for 90 minutes. Reaction are stopped by vacuum filtration onto 0.3% polyethyleneimine soaked filter mats using Filtermate harvester. Scintilation cocktail is then melted onto microwave-dried filters on a hot plate and the radio activity is counted in Microbia counter.

[12] = molecular target: 5-hydroxytryptamine receptor 5A (Homo sapiens) (UniProt P47898)
Description: PDSP Primary Binding target: HTR5A - Compounds are tested at 10 uM concentration, plate are incubated at room temperature in the dark for 90 minutes. Reaction are stopped by vacuum filtration onto 0.3% polyethyleneimine soaked filter mats using Filtermate harvester. Scintilation cocktail is then melted onto microwave-dried filters on a hot plate and the radio activity is counted in Microbia counter.

[13] = molecular target: 5-hydroxytryptamine receptor 7 (Homo sapiens) (UniProt P34969)
Description: PDSP Primary Binding target: HTR7 - Compounds are tested at 10 uM concentration, plate are incubated at room temperature in the dark for 90 minutes. Reaction are stopped by vacuum filtration onto 0.3% polyethyleneimine soaked filter mats using Filtermate harvester. Scintilation cocktail is then melted onto microwave-dried filters on a hot plate and the radio activity is counted in Microbia counter.

[14] = molecular target: Mu-type opioid receptor (Homo sapiens) (UniProt P35372)
Description: PDSP Primary Binding target: OPRM1 - Compounds are tested at 10 uM concentration, plate are incubated at room temperature in the dark for 90 minutes. Reaction are stopped by vacuum filtration onto 0.3% polyethyleneimine soaked filter mats using Filtermate harvester. Scintilation cocktail is then melted onto microwave-dried filters on a hot plate and the radio activity is counted in Microbia counter.

[15] = molecular target: Sigma non-opioid intracellular receptor 1 (Homo sapiens) (UniProt Q99720)
Description: PDSP Primary Binding target: SIGMAR1 - Compounds are tested at 10 uM concentration, plate are incubated at room temperature in the dark for 90 minutes. Reaction are stopped by vacuum filtration onto 0.3% polyethyleneimine soaked filter mats using Filtermate harvester. Scintilation cocktail is then melted onto microwave-dried filters on a hot plate and the radio activity is counted in Microbia counter.

[16] = molecular target: Sodium-dependent dopamine transporter (Homo sapiens) (UniProt Q01959)
Description: PDSP Primary Binding target: SLC6A3 - Compounds are tested at 10 uM concentration, plate are incubated at room temperature in the dark for 90 minutes. Reaction are stopped by vacuum filtration onto 0.3% polyethyleneimine soaked filter mats using Filtermate harvester. Scintilation cocktail is then melted onto microwave-dried filters on a hot plate and the radio activity is counted in Microbia counter.

[17] = molecular target: Sodium-dependent serotonin transporter (Homo sapiens) (UniProt P31645)
Description: PDSP Primary Binding target: SLC6A4 - Compounds are tested at 10 uM concentration, plate are incubated at room temperature in the dark for 90 minutes. Reaction are stopped by vacuum filtration onto 0.3% polyethyleneimine soaked filter mats using Filtermate harvester. Scintilation cocktail is then melted onto microwave-dried filters on a hot plate and the radio activity is counted in Microbia counter.

[18] = molecular target: Sigma intracellular receptor 2 (Homo sapiens) (UniProt Q5BJF2)
Description: PDSP Primary Binding target: TMEM97 - Compounds are tested at 10 uM concentration, plate are incubated at room temperature in the dark for 90 minutes. Reaction are stopped by vacuum filtration onto 0.3% polyethyleneimine soaked filter mats using Filtermate harvester. Scintilation cocktail is then melted onto microwave-dried filters on a hot plate and the radio activity is counted in Microbia counter.

[19] = molecular target: D(3) dopamine receptor (Homo sapiens) (UniProt P35462)
Description: PDSP Primary Binding target: DRD3 - Compounds are tested at 10 uM concentration, plate are incubated at room temperature in the dark for 90 minutes. Reaction are stopped by vacuum filtration onto 0.3% polyethyleneimine soaked filter mats using Filtermate harvester. Scintilation cocktail is then melted onto microwave-dried filters on a hot plate and the radio activity is counted in Microbia counter.

[20] = molecular target: T4, Muscarinic acetylcholine receptor M1 (Homo sapiens) (UniProt P11229)
T4 sequence (whole entry): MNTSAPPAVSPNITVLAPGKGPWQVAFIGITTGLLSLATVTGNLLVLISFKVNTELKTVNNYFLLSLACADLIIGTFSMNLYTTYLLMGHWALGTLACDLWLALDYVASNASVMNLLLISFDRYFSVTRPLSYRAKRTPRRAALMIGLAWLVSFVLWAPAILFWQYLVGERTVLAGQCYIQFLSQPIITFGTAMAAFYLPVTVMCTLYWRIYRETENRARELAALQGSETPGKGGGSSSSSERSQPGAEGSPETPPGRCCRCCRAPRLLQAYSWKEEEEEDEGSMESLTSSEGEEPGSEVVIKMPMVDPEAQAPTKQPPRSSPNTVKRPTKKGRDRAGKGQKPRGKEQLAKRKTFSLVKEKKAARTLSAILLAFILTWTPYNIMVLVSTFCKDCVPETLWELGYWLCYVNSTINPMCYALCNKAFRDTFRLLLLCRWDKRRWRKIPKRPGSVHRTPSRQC
Description: PDSP Primary Binding target: CHRM1 - Compounds are tested at 10 uM concentration, plate are incubated at room temperature in the dark for 90 minutes. Reaction are stopped by vacuum filtration onto 0.3% polyethyleneimine soaked filter mats using Filtermate harvester. Scintilation cocktail is then melted onto microwave-dried filters on a hot plate and the radio activity is counted in Microbia counter.

Sequence of 5-hydroxytryptamine receptor 1D (Homo sapiens) (P28221 whole entry): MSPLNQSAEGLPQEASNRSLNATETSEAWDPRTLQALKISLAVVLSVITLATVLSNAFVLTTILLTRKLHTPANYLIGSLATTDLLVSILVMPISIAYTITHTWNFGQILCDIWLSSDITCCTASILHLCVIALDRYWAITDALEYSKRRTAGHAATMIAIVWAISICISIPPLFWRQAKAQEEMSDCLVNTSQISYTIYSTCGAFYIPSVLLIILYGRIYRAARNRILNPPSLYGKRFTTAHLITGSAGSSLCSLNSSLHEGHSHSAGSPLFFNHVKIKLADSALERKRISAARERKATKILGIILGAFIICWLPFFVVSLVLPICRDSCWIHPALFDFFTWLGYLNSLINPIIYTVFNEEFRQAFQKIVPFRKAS
Sequence of Mu-type opioid receptor (Homo sapiens) (P35372 whole entry): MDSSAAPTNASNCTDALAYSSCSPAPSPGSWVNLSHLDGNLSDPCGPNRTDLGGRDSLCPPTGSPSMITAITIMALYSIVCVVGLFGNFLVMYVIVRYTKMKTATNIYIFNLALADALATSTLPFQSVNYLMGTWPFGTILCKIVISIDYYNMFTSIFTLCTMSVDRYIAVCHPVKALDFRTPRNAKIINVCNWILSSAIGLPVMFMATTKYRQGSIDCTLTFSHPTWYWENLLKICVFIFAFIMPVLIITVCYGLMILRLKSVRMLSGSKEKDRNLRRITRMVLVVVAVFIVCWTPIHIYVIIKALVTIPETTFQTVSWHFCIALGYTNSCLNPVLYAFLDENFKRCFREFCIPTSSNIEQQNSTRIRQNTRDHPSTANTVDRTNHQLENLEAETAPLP
Sequence of D(2) dopamine receptor (Homo sapiens) (P14416 whole entry): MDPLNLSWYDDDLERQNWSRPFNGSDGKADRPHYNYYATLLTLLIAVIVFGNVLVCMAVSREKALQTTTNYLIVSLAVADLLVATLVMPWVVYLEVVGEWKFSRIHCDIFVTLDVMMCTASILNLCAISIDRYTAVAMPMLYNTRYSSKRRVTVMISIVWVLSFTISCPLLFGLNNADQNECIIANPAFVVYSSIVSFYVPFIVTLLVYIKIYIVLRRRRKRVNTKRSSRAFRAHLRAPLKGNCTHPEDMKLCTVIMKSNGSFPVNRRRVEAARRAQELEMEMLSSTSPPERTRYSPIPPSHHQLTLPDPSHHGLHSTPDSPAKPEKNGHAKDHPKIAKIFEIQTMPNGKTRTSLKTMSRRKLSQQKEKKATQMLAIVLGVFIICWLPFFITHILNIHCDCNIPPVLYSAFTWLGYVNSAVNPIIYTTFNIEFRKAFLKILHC
Sequence of 5-hydroxytryptamine receptor 1E (Homo sapiens) (P28566 whole entry): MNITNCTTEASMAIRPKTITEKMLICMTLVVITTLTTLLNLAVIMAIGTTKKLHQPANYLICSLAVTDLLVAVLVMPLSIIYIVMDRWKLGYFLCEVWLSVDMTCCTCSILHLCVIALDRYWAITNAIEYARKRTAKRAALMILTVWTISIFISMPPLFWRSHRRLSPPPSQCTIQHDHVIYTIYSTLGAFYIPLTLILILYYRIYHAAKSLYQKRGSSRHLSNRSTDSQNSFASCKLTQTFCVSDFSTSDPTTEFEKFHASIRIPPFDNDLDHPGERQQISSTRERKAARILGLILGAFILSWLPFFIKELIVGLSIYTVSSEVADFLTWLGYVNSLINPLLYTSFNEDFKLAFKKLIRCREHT
Sequence of D(3) dopamine receptor (Homo sapiens) (P35462 whole entry): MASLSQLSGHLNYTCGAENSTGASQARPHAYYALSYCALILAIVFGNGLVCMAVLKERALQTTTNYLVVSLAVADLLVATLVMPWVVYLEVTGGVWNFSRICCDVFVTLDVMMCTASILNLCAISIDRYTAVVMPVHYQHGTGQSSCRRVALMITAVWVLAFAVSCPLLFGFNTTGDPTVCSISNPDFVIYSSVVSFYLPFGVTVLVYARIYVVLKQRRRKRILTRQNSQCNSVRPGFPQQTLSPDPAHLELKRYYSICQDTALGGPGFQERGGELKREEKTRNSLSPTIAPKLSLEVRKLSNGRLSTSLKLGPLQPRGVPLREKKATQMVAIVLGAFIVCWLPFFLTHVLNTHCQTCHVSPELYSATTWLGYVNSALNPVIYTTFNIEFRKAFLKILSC
Sequence of 5-hydroxytryptamine receptor 1B (Homo sapiens) (P28222 whole entry): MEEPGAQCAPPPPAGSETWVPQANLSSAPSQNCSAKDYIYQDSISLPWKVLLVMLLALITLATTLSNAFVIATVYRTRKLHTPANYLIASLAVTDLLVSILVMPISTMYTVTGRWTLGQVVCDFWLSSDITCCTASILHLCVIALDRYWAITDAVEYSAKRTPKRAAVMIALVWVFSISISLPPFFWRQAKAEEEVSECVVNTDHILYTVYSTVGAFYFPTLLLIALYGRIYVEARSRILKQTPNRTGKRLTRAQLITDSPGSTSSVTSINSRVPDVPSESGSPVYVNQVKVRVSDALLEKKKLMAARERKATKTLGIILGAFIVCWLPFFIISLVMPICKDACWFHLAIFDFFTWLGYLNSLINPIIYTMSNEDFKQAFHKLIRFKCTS
Sequence of 5-hydroxytryptamine receptor 2A (Homo sapiens) (P28223 whole entry): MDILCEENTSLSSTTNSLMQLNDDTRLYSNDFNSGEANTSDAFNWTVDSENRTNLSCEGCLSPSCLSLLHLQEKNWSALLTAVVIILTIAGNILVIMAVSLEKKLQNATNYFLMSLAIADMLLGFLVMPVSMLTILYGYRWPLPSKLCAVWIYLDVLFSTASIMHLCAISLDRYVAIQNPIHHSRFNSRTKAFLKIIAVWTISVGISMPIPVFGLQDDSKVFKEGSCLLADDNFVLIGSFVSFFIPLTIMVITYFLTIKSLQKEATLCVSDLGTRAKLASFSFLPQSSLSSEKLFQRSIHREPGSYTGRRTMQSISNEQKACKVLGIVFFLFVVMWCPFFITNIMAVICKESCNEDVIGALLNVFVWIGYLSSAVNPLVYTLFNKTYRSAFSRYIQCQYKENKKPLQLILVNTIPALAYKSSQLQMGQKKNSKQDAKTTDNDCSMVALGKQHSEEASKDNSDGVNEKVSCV
Sequence of 5-hydroxytryptamine receptor 2B (Homo sapiens) (P41595 whole entry): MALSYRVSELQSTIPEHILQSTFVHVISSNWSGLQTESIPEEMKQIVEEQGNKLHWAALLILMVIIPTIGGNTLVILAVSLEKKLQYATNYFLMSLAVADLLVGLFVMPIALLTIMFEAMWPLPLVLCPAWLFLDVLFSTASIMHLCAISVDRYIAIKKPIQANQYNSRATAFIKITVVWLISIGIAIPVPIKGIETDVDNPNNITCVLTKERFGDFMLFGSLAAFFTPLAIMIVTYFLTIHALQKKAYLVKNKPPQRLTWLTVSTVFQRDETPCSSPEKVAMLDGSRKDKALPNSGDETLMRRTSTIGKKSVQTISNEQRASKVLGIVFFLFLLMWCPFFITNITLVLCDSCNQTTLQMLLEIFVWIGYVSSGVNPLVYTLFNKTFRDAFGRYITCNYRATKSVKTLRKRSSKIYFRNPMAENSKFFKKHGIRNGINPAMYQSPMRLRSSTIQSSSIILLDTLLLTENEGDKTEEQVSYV
Sequence of 5-hydroxytryptamine receptor 5A (Homo sapiens) (P47898 whole entry): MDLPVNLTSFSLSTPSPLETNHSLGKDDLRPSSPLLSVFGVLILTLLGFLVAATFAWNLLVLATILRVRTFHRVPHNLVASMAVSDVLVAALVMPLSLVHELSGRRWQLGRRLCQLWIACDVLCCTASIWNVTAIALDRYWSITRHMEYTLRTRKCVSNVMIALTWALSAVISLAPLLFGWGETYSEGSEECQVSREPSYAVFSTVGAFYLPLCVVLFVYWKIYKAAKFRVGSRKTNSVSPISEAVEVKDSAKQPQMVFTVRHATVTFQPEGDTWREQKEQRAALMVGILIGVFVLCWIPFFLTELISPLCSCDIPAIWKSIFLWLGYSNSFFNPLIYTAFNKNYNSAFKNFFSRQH
Sequence of Histamine H3 receptor (Homo sapiens) (Q9Y5N1 whole entry): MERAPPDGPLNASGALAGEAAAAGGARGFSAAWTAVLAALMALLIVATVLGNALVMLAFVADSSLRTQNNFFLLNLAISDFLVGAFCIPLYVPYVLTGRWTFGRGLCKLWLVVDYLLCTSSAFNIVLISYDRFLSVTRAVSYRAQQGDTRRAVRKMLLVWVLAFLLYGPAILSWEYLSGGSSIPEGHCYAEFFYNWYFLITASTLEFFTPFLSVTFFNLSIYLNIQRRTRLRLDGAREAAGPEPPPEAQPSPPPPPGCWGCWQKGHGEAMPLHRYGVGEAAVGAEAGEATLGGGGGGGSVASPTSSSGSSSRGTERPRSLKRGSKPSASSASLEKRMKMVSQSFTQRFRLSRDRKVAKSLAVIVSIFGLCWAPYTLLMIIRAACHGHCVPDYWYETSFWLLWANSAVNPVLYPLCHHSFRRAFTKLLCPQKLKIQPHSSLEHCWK
Sequence of 5-hydroxytryptamine receptor 7 (Homo sapiens) (P34969 whole entry): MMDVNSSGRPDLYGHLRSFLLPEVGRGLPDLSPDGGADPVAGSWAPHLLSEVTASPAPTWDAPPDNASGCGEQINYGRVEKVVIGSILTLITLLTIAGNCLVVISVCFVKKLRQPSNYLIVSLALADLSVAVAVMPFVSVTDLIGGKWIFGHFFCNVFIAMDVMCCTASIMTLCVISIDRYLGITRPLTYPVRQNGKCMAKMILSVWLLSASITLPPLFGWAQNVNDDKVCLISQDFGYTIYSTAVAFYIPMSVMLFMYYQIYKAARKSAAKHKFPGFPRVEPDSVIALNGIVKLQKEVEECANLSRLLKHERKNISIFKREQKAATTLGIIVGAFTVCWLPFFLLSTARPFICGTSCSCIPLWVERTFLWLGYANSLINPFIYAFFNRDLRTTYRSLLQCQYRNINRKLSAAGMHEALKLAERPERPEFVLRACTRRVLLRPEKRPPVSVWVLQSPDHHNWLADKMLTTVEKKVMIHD
Sequence of Sigma non-opioid intracellular receptor 1 (Homo sapiens) (Q99720 whole entry): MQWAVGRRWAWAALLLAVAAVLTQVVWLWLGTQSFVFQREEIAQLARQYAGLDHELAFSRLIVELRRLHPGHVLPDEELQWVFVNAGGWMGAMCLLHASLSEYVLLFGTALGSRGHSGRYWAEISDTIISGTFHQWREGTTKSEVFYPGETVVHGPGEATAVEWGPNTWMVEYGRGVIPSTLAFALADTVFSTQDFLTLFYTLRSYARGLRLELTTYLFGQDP

Structure (SMILES)	inhibition [1] [%]	inhibition [2] [%]	inhibition [3] [%]	inhibition [4] [%]	inhibition [5] [%]	inhibition [6] [%]	inhibition [7] [%]	inhibition [8] [%]	inhibition [9] [%]	inhibition [10] [%]	inhibition [11] [%]	inhibition [12] [%]	inhibition [13] [%]	inhibition [14] [%]	inhibition [15] [%]	inhibition [16] [%]	inhibition [17] [%]	inhibition [18] [%]	inhibition [19] [%]	inhibition [20] [%]
COc1ccccc1N1CCN(CCCCNC(=O)c2ccc3ccccc3c2)CC1	98.8	73.4	91.8	49.6	108	93.2	103	27.8	-1.42	97	97.9	76.4	102	79.8	90.4	73.9	83.7	96.4		
CCc1nn(CCCN2CCN(c3cccc(Cl)c3)CC2)c(=O)n1CCOc1ccccc1	96	77.7	69.7	-2.65	42.6	88	100	-4.17	82	79.6	102	73.3	97	32.2	1.48	78.7	84.9	91.7	86.1	
CCCCCCCCCCCCC/C=C/[C@@H](O)[C@@H](N)COP(=O)(O)O		2.88	10.6	6.7	-8.27	8.79	63.5	14.4	-3.21	11.5	-2.94	-4.35	16.1	30.4	63.8		-0.47	79.4	1.79	
Cc1ccc2c(c1)c1c(n2CCc2ccc(C)nc2)CCN(C)C1	88.6	39.2	57.8	16.2	39.1	74.3	70.8	56.9	84.6	76.9	81.4	94.8	90.7	2.42	71.7		-8.68	32.2	72.3	
CN[C@@H]1CCc2[nH]c3ccc(C(N)=O)cc3c2C1	11.8		67.2	11.7	56.4	88.2	72.3	79.1	16.6	6.12	18.2	9.03	92	54.7	42.1		7.67	54.9	47.6	
C[N+]1(C)[C@@H]2C[C@@H](OC(=O)C(O)(c3cccs3)c3cccs3)C[C@H]1[C@@H]1O[C@@H]12	3.89		15.2			14.9	32.9	11.2	-4.76	11.5	-6.52	2.25	-5.44	10.3	32.7	-2.43	30	66.5	24	94.5
Cc1c(F)cccc1NC(=O)Nc1ccc(Cl)c(S(=O)(=O)[C@H]2CCCNC2)c1O	19.2		11.7			8.6	-2.39	-6.67	-0.14	44.3	-7.64	16.5	-3.91	-3.61	9.71	14.9	-2.95		25.8	
Cc1ccccc1N1CCN(S(=O)(=O)C[C@]23CC[C@H](C[C@@H]2NC(=O)[C@@H](N)CCS(C)(=O)=O)C3(C)C)CC1	19.4	7.11		-8.2		18.8	-2.54	19.7	1.52	31.7	-4.87	-3.77	25.6	15.9	89.9	30.4	-9.42	85		
CC(C)[C@H](CO)Nc1nc(Nc2cccc(Cl)c2)c2ncn(C(C)C)c2n1	1.19	20.4	11		5.71	38.1	60.1		41.8	96.2	51	60.9	11.4	9.06	14.4	17.5	3.66	63.1	22.4	
Cc1nc(-c2ccc(C(F)(F)F)cc2)sc1COc1ccc([C@H](CC(=O)O)c2ccon2)cc1			16.7	9.74			8.11	39.7	48.3	0.53	-6.07	26.8	4.07	-7.02	37.7	51.1	21.4	26.5	42.1	
NCCc1c[nH]c2ccc(C(N)=O)cc12	-9.81		55.9		91.4	101	98.3	65.6	-8.47	78.8	71.4	99.4	100	28.8	20.2	44.6	49.3	63.4	7.17	
